According to ChEMBL document CHEMBL1201862, “PubChem BioAssay data set” (2004):
One block for each compound: values may come before it. Active and inactive are the calls of the source.

What was measured:
[1] = biological target: Luciferin 4-monooxygenase (Photinus pyralis, UniProt P08659); experiment: inhibition of purified Photinus pyralis luciferase – biochemical, luminescence, dose response (AID 1891)
[2] = Luminescence Cell-Based Dose Confirmation HTS to Identify Inhibitors of Platelet Dense Granule Release. [Related pubchem assays: 1663 (Primary HTS), 1678 (Summary of Project)]; format: functional
[3] = Luminescence-based counterscreen assay for KLF5 inhibitors: dose response cell-based high throughput screening assay to identify cytotoxic compounds using the IEC-6 intestinal epithelial cell line. [Related pubchem assays: 1700 (Primary screen.), 1834 (Confirmation screen.), 1858 (Summary AID.), 1905 (Counterscreen.)]; format: functional
[4] = ADP-Glo luciferase signal interference – biochemical, luminescence, cherry-picked samples, set 2, artefact control for CDK5 inhibitor project, dose response (AID 504546); format: functional, cell-based
[5] = biological target: Cyclin-dependent kinase 5/CDK5 activator 1 (Homo sapiens, UniProt Q00535); experiment: blockade of human CDK5 activity – biochemical, cherry-picked samples, set 2, dose response (AID 504545)
Cyclin-dependent kinase 5/CDK5 activator 1, sequence (Q00535 whole entry): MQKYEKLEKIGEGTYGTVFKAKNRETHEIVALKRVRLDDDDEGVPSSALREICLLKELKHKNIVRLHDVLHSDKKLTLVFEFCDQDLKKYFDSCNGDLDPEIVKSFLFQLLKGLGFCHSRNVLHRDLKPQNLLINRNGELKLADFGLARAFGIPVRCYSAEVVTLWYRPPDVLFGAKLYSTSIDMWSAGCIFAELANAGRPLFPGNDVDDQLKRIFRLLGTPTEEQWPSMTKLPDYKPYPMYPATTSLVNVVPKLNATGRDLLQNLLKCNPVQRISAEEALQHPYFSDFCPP
Cyclin-dependent kinase 5/CDK5 activator 1, sequence (Q15078 whole entry, further chain): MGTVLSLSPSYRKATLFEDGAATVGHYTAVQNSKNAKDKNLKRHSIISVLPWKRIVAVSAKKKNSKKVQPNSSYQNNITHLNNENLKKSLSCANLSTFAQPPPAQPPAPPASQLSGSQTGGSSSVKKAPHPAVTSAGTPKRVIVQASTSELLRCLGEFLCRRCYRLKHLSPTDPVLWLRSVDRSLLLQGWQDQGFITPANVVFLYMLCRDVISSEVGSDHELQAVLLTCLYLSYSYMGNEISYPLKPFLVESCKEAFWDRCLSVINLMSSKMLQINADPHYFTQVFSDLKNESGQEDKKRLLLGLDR

[6] = HEK-293T viability loss after treatment – luminescence, T-cell screen hits, cytotoxicity control for TCR NF-kB inhibitor project, dose response (AID 489026); format: functional, cell-based;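 note: cells exposed to compound about 14 hours before the viability readout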
[7] = blockers of HIV-1 envelope-mediated cell-cell fusion – cherry-pick, dose response (AID 652057); format: functional, cell-based
[8] = viability loss in CEM21 cells – cell-based, CellTiter-Glo luminescence, cherry-picked, cytotoxicity control for viral fusion inhibitor project, dose response (AID 652042); format: functional;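 note: potency for signal decrease meaning cytotoxicity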
[9] = blockers of HIV-1 ZM109 envelope-driven cell-cell fusion – HeLa effector, CEM target cells, luciferase, cherry-pick, dose response (AID 652058); format: functional, cell-based;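 note: luciferase signal from HIV-1 Env mediated cell-cell fusion of effector and target cells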
[10] = off-target signal loss in HeLa-CEM21 co-culture – HeLa F-luc CTL cells, cherry-picked, counter-screen for HIV-1 Env fusion inhibitor project, dose response (AID 652040); format: functional, cell-based;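 note: potency for signal decrease marking cytotoxic or nonspecific inhibition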
[11] = HIV-1 AD8 envelope cell-cell fusion blockers – cherry-pick, dose response (AID 652062); format: functional, cell-based;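 note: luciferase signal from cell-cell fusion driven by HIV-1 clade B AD8 Env; potency is for inhibitors of fusion seen as a drop in luminescence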
X-box-binding protein 1 = X-box-binding protein 1 (Homo sapiens, UniProt P17861); format: functional, Cricetulus griseus;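 note: confirmatory dose-response counter-screen serving a CHOP assay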
X-box-binding protein 1, sequence (P17861 whole entry): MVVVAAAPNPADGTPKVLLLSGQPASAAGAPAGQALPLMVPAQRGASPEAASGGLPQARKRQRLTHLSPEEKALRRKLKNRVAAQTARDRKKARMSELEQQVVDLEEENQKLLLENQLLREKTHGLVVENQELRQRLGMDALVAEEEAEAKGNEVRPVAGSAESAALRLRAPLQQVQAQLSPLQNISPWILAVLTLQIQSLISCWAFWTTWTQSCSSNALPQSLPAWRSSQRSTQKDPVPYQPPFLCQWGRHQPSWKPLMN

Hexokinase HKDC1 = biological target: T1, Hexokinase HKDC1 (Homo sapiens, UniProt Q2TB90); experiment: inhibition of HKDC1 glucose phosphorylation – biochemical, W721R variant, dose response (AID 504729); format: functional
T1 sequence (Q2TB90 whole entry): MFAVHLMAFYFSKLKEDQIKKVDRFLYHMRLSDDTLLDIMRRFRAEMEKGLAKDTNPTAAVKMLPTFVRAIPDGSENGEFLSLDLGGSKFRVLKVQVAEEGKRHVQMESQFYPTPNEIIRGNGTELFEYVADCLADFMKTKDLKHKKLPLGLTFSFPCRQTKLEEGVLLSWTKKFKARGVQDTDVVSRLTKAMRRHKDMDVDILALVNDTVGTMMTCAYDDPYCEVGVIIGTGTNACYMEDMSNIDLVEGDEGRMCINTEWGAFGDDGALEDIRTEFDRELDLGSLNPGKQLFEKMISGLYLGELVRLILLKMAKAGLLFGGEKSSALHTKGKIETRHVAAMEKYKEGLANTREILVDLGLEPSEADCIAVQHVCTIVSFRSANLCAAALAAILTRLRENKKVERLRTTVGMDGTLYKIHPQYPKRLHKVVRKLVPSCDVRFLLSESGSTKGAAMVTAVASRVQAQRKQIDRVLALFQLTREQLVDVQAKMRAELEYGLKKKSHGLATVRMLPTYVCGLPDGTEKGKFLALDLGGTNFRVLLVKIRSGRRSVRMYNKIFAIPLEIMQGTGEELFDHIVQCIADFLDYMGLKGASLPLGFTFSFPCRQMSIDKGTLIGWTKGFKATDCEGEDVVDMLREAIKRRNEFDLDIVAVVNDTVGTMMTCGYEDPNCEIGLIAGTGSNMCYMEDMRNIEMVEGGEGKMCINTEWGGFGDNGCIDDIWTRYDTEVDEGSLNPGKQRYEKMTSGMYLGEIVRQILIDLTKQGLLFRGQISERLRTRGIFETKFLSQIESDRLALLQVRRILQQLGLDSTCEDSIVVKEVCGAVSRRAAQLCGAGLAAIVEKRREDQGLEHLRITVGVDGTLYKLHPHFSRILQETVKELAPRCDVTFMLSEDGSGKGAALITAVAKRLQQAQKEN

[12] = biological target: Melanin-concentrating hormone receptor 1 (Homo sapiens, UniProt Q99705); experiment: Late-stage fluorescence-based counterscreen for antagonists of the G-protein coupled receptor 7 (GPR7): cell-based dose response assay to identify antagonists of the melanin-concentrating hormone receptor 1 (MCHR1). [Related pubchem assays (depositor defined):AID1861, AID1880, AID1952, AID2148, AID2251, AID2257, AID485339]; format: functional;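 note: stimulated with 30 nM MCH peptide agonist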
Melanin-concentrating hormone receptor 1, sequence (Q99705 whole entry): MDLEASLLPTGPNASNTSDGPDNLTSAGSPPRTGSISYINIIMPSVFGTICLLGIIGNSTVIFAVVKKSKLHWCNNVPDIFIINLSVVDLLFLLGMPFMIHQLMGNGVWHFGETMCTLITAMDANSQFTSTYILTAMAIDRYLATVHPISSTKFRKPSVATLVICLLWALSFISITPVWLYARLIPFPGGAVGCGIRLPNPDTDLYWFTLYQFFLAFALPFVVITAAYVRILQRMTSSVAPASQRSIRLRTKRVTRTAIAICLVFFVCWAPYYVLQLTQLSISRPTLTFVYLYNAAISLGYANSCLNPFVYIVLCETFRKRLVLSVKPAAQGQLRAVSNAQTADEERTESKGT

[13] = biological target: T2, Neuropeptides B/W receptor type 1 (Homo sapiens, UniProt P48145); experiment: human NPBW1 receptor blockade, IC50 – cell-based, fluorescence, dose response, late-stage follow-up (AID 463251); format: functional
T2 sequence (P48145 whole entry): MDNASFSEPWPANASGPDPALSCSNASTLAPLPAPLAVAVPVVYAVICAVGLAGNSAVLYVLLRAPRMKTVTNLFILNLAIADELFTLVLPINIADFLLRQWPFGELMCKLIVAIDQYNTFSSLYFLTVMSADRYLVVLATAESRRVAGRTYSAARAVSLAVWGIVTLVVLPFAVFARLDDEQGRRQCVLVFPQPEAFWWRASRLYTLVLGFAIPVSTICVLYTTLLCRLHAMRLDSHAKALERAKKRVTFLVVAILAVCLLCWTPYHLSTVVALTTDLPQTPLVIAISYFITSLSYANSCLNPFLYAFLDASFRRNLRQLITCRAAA

Luciferin 4-monooxygenase, sequence (P08659 whole entry): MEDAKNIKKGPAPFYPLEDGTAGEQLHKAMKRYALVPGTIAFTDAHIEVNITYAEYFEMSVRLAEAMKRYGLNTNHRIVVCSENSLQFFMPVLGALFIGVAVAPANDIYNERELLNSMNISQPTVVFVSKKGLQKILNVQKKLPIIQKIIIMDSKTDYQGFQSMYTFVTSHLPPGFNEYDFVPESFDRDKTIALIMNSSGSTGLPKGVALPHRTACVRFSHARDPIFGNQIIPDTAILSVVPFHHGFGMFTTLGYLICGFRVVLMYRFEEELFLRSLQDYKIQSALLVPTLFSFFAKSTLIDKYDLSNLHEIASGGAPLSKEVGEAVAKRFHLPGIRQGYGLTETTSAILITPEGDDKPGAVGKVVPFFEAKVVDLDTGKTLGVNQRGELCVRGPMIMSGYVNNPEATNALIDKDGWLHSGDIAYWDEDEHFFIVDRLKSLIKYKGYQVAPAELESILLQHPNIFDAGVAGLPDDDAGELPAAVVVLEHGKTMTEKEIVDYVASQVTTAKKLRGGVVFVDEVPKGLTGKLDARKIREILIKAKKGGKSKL

Compound: Cc1ccc(C(=O)O/N=C(\N)c2ccccn2)c(Cl)c1
EC50 [1]: 0.782 µM (active)
EC50 [2]: 1.2 µM (active)
IC50 [3]: 20.1 µM (not active)
AC50 [4]: 92.9 µM (active)
AC50 [5]: 21.4 µM (active)
IC50 [6]: > 80 µM (inactive)
AC50 [7]: 3.44 µM (active)
AC50 [8]: 17.3 µM (active)
AC50 [9]: 21.8 µM (active)
AC50 [10]: 9.61 µM (active)
AC50 [11]: 6.87 µM (active)

Absolute IC50 (XBP1) (X-box-binding protein 1): 10 µM
Compound: CC(C)c1ccc(NC(=O)CSc2[nH]c(-c3ccccc3F)nc3ncnc2-3)cc1

IC50 (Hexokinase HKDC1): > 80 µM (inactive)
Compound: C=CCn1c(SCC(=O)Nc2sc3c(c2C#N)CCC(C)C3)nc2cc(C(=O)O)ccc2c1=O (stereo not given)

IC50 [12]: 5.7 µM (active)
IC50 [13]: 1.4 µM (active)
Compound: CC(C)c1ccc(-n2ncc(Cl)c(Oc3ccc(Cl)cc3)c2=O)cc1
